# In patent publication US11668702B2, “Regulation of fungal fruiting body development” (The Chinese University of Hong Kong, priority 2017, dated 2023):
# “Also recorded” adds a separate entry of the source.
# Key:
# [1] = tested on: C. cinerea; assay: LiCl clearance and fruiting body formation (Example 3); type: cell-based, Coprinopsis cinerea; settings: washing mycelium and substrate with ddH2O or transfer onto clean substrate
# Description: The LiCl inhibition of C. cinerea mycelium can be relieved by removing LiCl or diluting the concentration of LiCl, for example, by washing the mycelium and substrate with ddH2O, or by transferring the mycelium onto a clean substrate.
# [2] = tested on: C. cinerea; assay: Fruiting body development of C. cinerea on YMG agar with LiCl in or under the agar
# [3] = tested on: C. cinerea; assay: Mycelial growth rate of LiCl treated C. cinerea on YMG agar; type: cell-based, Coprinopsis cinerea
# Experimental: FIG. 3: Mycelial growth of C. cinerea with different doses of LiCl, biological triplicates were used for mean calculation.
# The mycelial growth rate was measured for the LiCl treated C. cinerea. Biological triplicates were cultivated on YMG agar plates at 37° C. in darkness, treated with different doses of LiCl. The mycelium growth was recorded for 4 days.
# [4] = cited from earlier work
# [5] = tested on: C. cinerea; assay: C. cinerea fruiting body development, solution spread on YMG agar surface before inoculation (Example 5); type: cell-based, Coprinopsis cinerea; settings: for Fruiting body development stage reached: 5 days light/dark cycle at 25° C.
# Experimental: FIG. 9: Effect on C. cinerea fruiting body development by GSK3 inhibitor-LiCl at different concentration. Water or LiCl solution was spread on the surface of YMG agar, before inoculation. After 6-days all dark incubation in 37° C., the plates were transferred to 25° C. with 12-hours light and 12-hours dark cycle (light/dark cycle) for 5-days incubation. […] Initials and hyphal knots formed on the plates treated with 0.75 g/L and 1.5 g/L LiCl respectively.
# FIG. 10: Effect on C. cinerea fruiting body development by GSK3 inhibitor-CHIR-99021 HCl at different concentration. Water or CHIR-99021 HCl solution was spread on the surface of YMG agar, before inoculation. After the mycelium reached the edge of plates, the plates were transferred to 25° C. with light/dark cycle for 6-days incubation.
# FIG. 11: Effect on C. cinerea fruiting body development by GSK3 activator-Cisplatin at different concentration. Water or Cisplatin solution was spread on the surface of YMG agar, before inoculation. After the mycelium reached the edge of plates, the plates were transferred to 25° C. with light/dark cycle. […] Young fruiting body developed on the control YMG plates treated with water.
# Two GSK3 inhibitors (LiCl and CHIR-99021 HCl) and one GSK3 activator (Cisplatin) were tested in Coprinopsis cinerea, and one GSK3 inhibitor (LiCl) was tested in Pleurotus djamor (commonly known as the pink oyster mushroom). Belonging to the same order Agaricales, these two tested mushroom species are of two different families, Psathyrellaceae and Pleurotaceae, respectively.
# Water or LiCl solution was spread on the surface of YMG agar before inoculation of C. cinerea. After 6-days all dark incubation in 37° C., the plates were transferred to 25° C. with 12-hours light and 12-hours dark cycle (light/dark cycle) for 5-days incubation. […] Initials and hyphal knots were formed on the plates treated with 0.75 g/L and 1.5 g/L LiCl respectively.
# Water or CHIR-99021 HCl solution was spread on the surface of YMG agar before inoculation of C. cinerea. After the mycelium reached the edge of plates, the plates were transferred to 25° C. with light/dark cycle for 6-days incubation.
# Water or Cisplatin solution was spread on the surface of YMG agar before C. cinerea inoculation. After the mycelium reached the edge of plates, the plates were transferred to 25° C. with light/dark cycle. […] Young fruiting body developed on the control YMG plates treated with water.
# [6] = tested on: Pleurotus djamor; assay: Self-healing ability and stability of mycelium blocks; settings: 2 g/L LiCl in substrate; following 30 days
# Experimental: FIG. 8: Comparison of the self-healing ability between the mycelium blocks treated by heating and LiCl. The two group of mycelium blocks (e.g., Pleurotus djamor blocks) were broken in the middle. In each group, 3 blocks were spread with the solution of YMG broth and the other 3 blocks with ddH2O on the broken sites. The two parts of one block were incubated together for 3 days.
# The self-healing ability and stability of the living material is tested by comparison of the self-healing ability between the mycelium blocks treated by heating and LiCl. To prepare the demo mycelium blocks, water (as in group “Heat”) or 2 g/L LiCl water solution (as in group “Lithium”), sawdust, wheat bran and calcium carbonate were mixed as substrate and autoclaved the substrate. Then the Pleurotus djamor was inoculated to the substrate, and incubated under 27° C. continuous dark for 7 days. Then 30 g of the mixture of mycelium and substrate were transferred into molds of block, with same volume and pressure. The blocks were incubated under 27° C. continuous dark for another 7 days. Then the blocks of “Heat” group were dried by oven, and the block of “Lithium” group were dried by dehumidifier, to the same mass of the “Heat” group.
# The two group of mycelium blocks were broken in the middle. In each group, 3 blocks were spread with the solution of YMG broth and the other 3 blocks with ddH2O on the broken sites. […]
# [7] = tested on: Pleurotus djamor; assay: Pleurotus djamor fruiting body development, LiCl in YMG agar; type: cell-based; settings: 2 g/L LiCl in YMG agar; 10 days dark at 27° C., 10 days light/dark cycle at 25° C.
# Experimental: FIG. 12: Effect on Pleurotus djamor fruiting body development by GSK3 inhibitor-LiCl at different concentration. LiCl was added to YMG agar medium before autoclave. After 10-days all dark incubation in 27° C., the plates were transferred to 25° C. with 12-hours light and 12-hours dark cycle (light/dark cycle) for 10-days incubation. Mature fruiting bodies developed on the control plates.
# LiCl was added to YMG agar medium before autoclave. After 10-days all dark incubation in 27° C., the plates were transferred to 25° C. with 12-hours light and 12-hours dark cycle (light/dark cycle) for 10-days incubation. Mature fruiting bodies developed on the control plates.
compound,measurement,setting,value
"[Cl-].[Li+] [LiCl, Lithium chloride]",Fruiting after removing or diluting LiCl,[1],fruiting bodies develops again
same,Effect on Fruiting body development,[2]; 1.5 g/L LiCl in agar,No
same,Effect on Fruiting body development,"[2]; 1.5 g/L LiCl under agar (concentration calculated with volume of sum of agar and H2O), 8 days",produced only a few initials and stage 1 primordia; also recorded: Retarded
same,Effect on Fruiting body development,[2]; 3 g/L LiCl in agar,absence of fruiting body and No
same,Effect on Fruiting body development,[2]; 3 g/L LiCl under agar (concentration calculated with volume of sum of agar and H2O),No
same,Effect on Fruiting body development,[2]; 6 g/L LiCl in agar,No
same,Effect on Fruiting body development,[2]; 6 g/L LiCl under agar (concentration calculated with volume of sum of agar and H2O),No
same,Fruiting body initiation,"[2]; LiCl concentration higher than 1.5 g/L, in the following 30 days",No initiation was observed
same,"Fruiting body initiation, dose dependence",[2]; LiCl in agar or under agar,inhibited the fruiting body initiation in a dose-dependent manner
same,Effect on Mycelium growth,[3]; 1.5 g/L LiCl in agar,higher than control; also recorded: Acceleration
same,Effect on Mycelium growth,[3]; 3 g/L LiCl in agar,higher than control; also recorded: acceleration in mycelium growth rate
same,Effect on Mycelium growth,[3]; 6 g/L LiCl in agar,inhibit the growth of mycelium; also recorded: Retarded
same,Solubility,[4],"soluble in water, ethanol, acetone, pyridine and nitrobenzene"
same,Fruiting body development stage reached,[5]; 0.375 g/L LiCl,Primordium were formed
same,Fruiting body development stage reached,[5]; 0.75 g/L LiCl,Initials
same,Fruiting body development stage reached,[5]; 1.5 g/L LiCl,hyphal knots
same,Fruiting body development stage reached,[5]; 3 g/L LiCl,arrested in mycelium stage
same,Mycelium growth on plate,[5]; 6 g/L LiCl,stopped before reaching the edge of plates
same,Fruiting body development stage reached,[5]; 6 g/L LiCl,arrested in mycelium stage
same,Initials and fruiting bodies on mycelium blocks,[6],clear of initials and fruiting bodies
same,Fruiting body development,[7],failed to develop fruiting body
